These results are taken from patent US10539578B2, “Method for diagnosing, treating, or preventing mood disorders” (JAPAN TOBACCO INC., priority 2015, dated 2020).

Assay [1] has as its system HHV-6 variant B HST strain. Kind of assay: SITH-1 expression in HHV-6-infected U373 cells in the presence of ganciclovir (Real-time PCR). It is filed as cell-based. The following applies: U373 cultured overnight with drug, one day after infection, relative to ganciclovir(−). On the procedure:
In the presence of ganciclovir, human glial cell lines (U373) were infected with HHV-6, and SITH-1 expression levels in the infected cells was detected by use of Real-time PCR.
The U373 cells were cultured overnight in the presence of ganciclovir at concentrations indicated in the graph. Thereafter, the U373 cells were infected with HHV-6 variant B HST strain, and after one day had passed after this infection, the SITH-1 expression levels in the cells were detected by use of Real-time PCR.
With regards to an effective concentration of ganciclovir against HHV-6 variant B, IC50 was presumed to be approximately 10 μM. As such, three concentration levels obtained by 3-fold dilution were used, with 10 μM being a median amount.
FIG. 25 illustrates suppression of SITH-1 expression by ganciclovir. The vertical axis of FIG. 25 represents SITH-1 mRNA expression level as a ratio, where 1 is the ratio for ganciclovir(−). […] When ganciclovir was used in an amount of 3 μM, 10 μM, and 30 μM, SITH-1 mRNA expression levels were reduced by approximately 20%, 40%, and 80% or more, respectively.
A general note: In qPCR the cycle at which signal appears reflects the starting amount.

Assay [2] deals with HHV-6 variant B. The following applies: presumed value used to choose test concentrations; read-out: IC50 (effective concentration against HHV-6 variant B); cited from earlier work.
For assay [3], the system named is C57BL/6NCrS1c mice. Description: Tail suspension test of mice after nasal administration of SITH-1-expressing adenovirus. The assay is classed as in vivo. The settings on record: 80 mg/L Fluoxetine solution as drinking water from 2 weeks before SITH-1/Adv; test 7 days after nasal administration. On the procedure: 8-week-old C57BL/6NCrS1c mice were raised at a room temperature of 24±1° C. and with lights on for 12 hours and off for 12 hours. After each of the mice was anesthetized with use of isoflurane, SITH-1/Adv or empty/Adv in an amount equivalent to 2.5×10^7 ifu was dropped into the nasal cavity, and was then sucked by the mice along with breathing. Then, the mice were returned to raising cages.
7 days after the nasal administration of SITH-1/Adv or empty/Adv, a tail suspension test was carried out for 10 minutes. A period of immobility time was measured with use of TailSuspScanTopScan (CleverSys, Inc.). The tail suspension test was carried out by suspending each mouse by taping the tail 1 cm from the end. […] In the experiment, 30 mice were used in each group.
Statistical significance (* indicates P<0.05, ** indicates P<0.01, and *** indicates P<0.001) was calculated by use of the Mann-Whitney U-test.
Then, it was studied whether or not an SSRI (selective serotonin reuptake inhibitor), which is an antidepressant, would suppress an increase in immobility time, the increase being caused by the nasal administration of the SITH-1/Adv. 80 mg/L of Fluoxetine solution as drinking water was given to 6-week-old mice, and then the mice were raised for 2 weeks. Then, SITH-1/Adv was nasally administered. 7 days after the nasal administration, a tail suspension test was carried out for 10 minutes. […]

The test system of assay [4] is HHV-6 HST strain. Kind of assay: Suppression of SITH-1 expression by heparin and anti-heparan sulfate peptide in HHV-6-infected U373 cells. The assay is classed as cell-based. The following applies: 10 unit/mL reacted with U373 cells at 4° C. for 1 hour before infection; MOI 3; 48 hours. The method, then:
U373 astrocytoma cells were removed with use of trypsin-EDTA, and then a medium (10% FBS-containing DMEM) was added, so that the resultant cells were at 1×10^5 cell/mL. Then, the U373 cells were reacted with 10 unit/mL of Novo-Heparin (Mochida Pharmaceutical Co., Ltd.) or 0.1 mM of anti-3-OS Heparan sulfate (HS) peptide trifluoroacetate salt (Sigma-Aldrich) at 4° C. for 1 hour. The U373 cells were also reacted only with a medium as a control at 4° C. for 1 hour. The resultant cells were washed 3 times with a medium. Then, the U373 cells thus washed were infected with a HHV-6 HST strain virus fluid (2.9×10^6 ffu/ml) at a MOI of 3 by centrifugation. Then, the infected cells were cultured at 37° C. for 48 hours in a CO2 incubator.
From the resultant infected cells, RNA was purified by use of an RNeasy Mini Kit (Qiagen) in accordance with the standard protocol. Then, cDNA was synthesized by use of a PrimeScript RT Reagent Kit (Takara Bio). Finally, expression levels of SITH-1 and GAPDH mRNA were measured by a method similar to that used in the above (3.1).

Assay [5] deals with HEK293 cells. Description: Effect of intracellular protein expression on intracellular calcium concentration (Fluo 4-AM fluorescence). The assay is classed as cell-based. The settings on record: protein temporarily overexpressed in HEK293 cells, 24 hours after transfection; vs control vector (S-C protein: vs SITH-1-expressing cell). An excerpt:
In order to express SITH-1, the S-C protein, and the C-S protein intracellularly, pFLAG-CMV-5b (SIGMA-ALDRICH), which is an expression vector for mammals, was used to construct SITH-1/pFLAG-CMV-5b, SITH-CAML/pFLAG-CMV-5b, and CAML-SITH/pFLAG-CMV-5b. In each of the fusion proteins, the spacer (SEQ ID NO: 6) shown in FIG. 1 was inserted between SITH-1 and CAML. pFLAG-CMV-5b was used as a control. Each vector was transfected into HEK293 cells by use of a CalPhos (trademark) Mammalian Transfection Kit (Takara Bio), such that each protein was temporarily overexpressed intracellularly.
A Calcium Kit II-Fluo 4 (Dojindo) was used to cause cells to take up Fluo 4-AM, 24 hours after transfection. Thereafter, an ArrayScan XTI System (ThermoFisher Scientific) was used to measure fluorescence intensities (λex=485 nm, λem=518) in cells expressing the various proteins (700 to 1300 cells per protein type).
FIG. 26 indicates the effects of SITH-1 expression, S-C protein expression, and C-S protein expression on intracellular calcium concentration. Median, maximum, and minimum values are indicated as a box-and-whisker plot. Statistical significance (′ indicates P<0.01) was determined via a multiple comparison test using Scheffe's method.
On the technique in general: A change in cytosolic calcium serves as a functional read-out for many receptors and channels.

As to `Nc1nc(O)c2ncn(COC(CO)CO)c2n1` [ganciclovir], the “SITH-1 mRNA expression level reduced by” value is reported as “approximately 20%” in assay [1] (ganciclovir 3 μM), approximately 40% in assay [1] (ganciclovir 10 μM) and not below 80% in assay [1] (ganciclovir 30 μM). Further, the IC50 in assay [2] was approximately 10 µM.

On to `CNCCC(Oc1ccc(C(F)(F)F)cc1)c1ccccc1` (stereo not shown) [Fluoxetine], for which, in assay [3], the “immobility time increases in SITH-1/Adv nasal administration mice (tail suspension test)” value was “suppressed”. Turning to heparin, the “SITH-1 expression in U373 cells” value in assay [4] is “suppressed”.

B1: SITH-1: HHV-6 latent infection protein, 159 amino acids, SEQ ID NO: 1 (protein)
chain: MGYEEKVSATGKTRLKILACLIVLILAAAITMLTLEIISNQKRTTTDLEAVTVALKHVSTSLASCTESTTSVHTDSVTSQPTKNKESRKKIEGKSPSWVQALTTASGIILLFCIMMIFITCSWTTEKDTEKSEVQSYASSVETLDSLNEAIIPKTEMNV
modifications: Human herpesvirus 6
As to B1, the intracellular calcium concentration result in assay [5] was “increased”.
